One compound from publication PMC13252604, “First Generation Proteolysis Targeting Chimeras (PROTACs) for the Treatment of Progeria” (Advanced Science, 2026) can be followed below.

Data set [1] deals with HGADFN167 Lmna^G608G/G608G fibroblasts. The experiment in a line: Oxygen consumption rates (OCR) measurement. Format: cell-based, human. As to conditions: HGADFN167, 5 µM, 20 days. From the text: FIGURE 6 (A) Representative cropped immunoblots and progerin quantification in human Lmna^G608G/G608G fibroblasts. MW, molecular weight (in kDa) markers. […] (B) PROTAC 2 increases cell proliferation (upper panels) and decreases the number of misshapen nuclei (lower panels). White arrows highlight selected misshapen nuclei. (C) PROTAC 2 decreases senescence‐associated β‐galactosidase (SA‐βgal) activity, interleukin (IL) 6, p16 and p21 senescent markers. Bar graphs show mean±sem of 2 (SA‐βgal and p21) or 3 (IL‐6 and p16) independent experiments performed in triplicate. (D) PROTAC 2 decreases phosphorylated histone 2AX (pH2AX) and increases trimethylated histone 3 (H3K9Me3) levels. (E) PROTAC 2 increases the oxygen consumption rate (OCR), ATP production and the number of healthy mitochondria in human progeroid cells. Bar graphs show mean±sem of 2 independent experiments performed in duplicate. […] Data were analysed using one‐way ANOVA followed by Dunnett's post–hoc test vs vehicle (panel A) or vs G608G cells (panels B‐E). ^*, p < 0.05; ^**, p < 0.01; ^***, p < 0.001; ^****, p < 0.0001. […]
Mitochondria were evaluated for the integrity of the membrane, matrix and cristae, and were classified as mitochondria with normal morphology (black arrows) or damaged mitochondria (red arrows, with alterations in the membrane, presence of inclusions in the matrix and concentric cristae or “onion-like” mitochondria). […]
ferrocyanide, 0.6 mL 5 M NaCl, 0.2 mL 0.2 M MgCl2, (all from Sigma Aldrich) and 6.2 mL of deionized water in a total volume of 20 mL] in the dark in a humidified incubator at 37 °C for 24 h without CO2 supply. Then, an equal volume of the supernatant of each well was transferred to a new 96-well plate for fluorescence measurement. The resultant production of fluorescein was measured using a FluoStar Optima instrument (BMG Labtech) with an excitation of 485 nm and emission at 535 nm. […]
Total RNA was extracted by RNAeasy Mini Kit (Qiagen) according to the manufacturer instructions and subsequently quantified using the NanoPhotometer N60 (Implen). […]

Data set [2] can be described thus: Stability in cell culture. The format is in vitro ADME. From the text: TABLE 1 Pharmacokinetic parameters of PROTAC 2. | column: Stability (hours) ^b / Cell culture

Regarding `CC1(C)Oc2cc3oc(=O)ccc3cc2C[C@@H]1OC(=O)CCCCCNc1cccc2c1C(=O)N(C1CCC(=O)NC1=O)C2=O` (stereo partly shown) [compound 2], in data set [1], the ATP production entry is “enhances”, the basal respiration result is given as “enhances” and the “oxygen consumption rate (OCR)” value was “enhances OCR in human progeroid cells”. Also, the “Stability (hours) Cell culture” value in data set [2] was above 24 h.
